Measured values: US20250122581A1, “TUMOR AND METASTASIZING MARKER” (UNIVERSITAET ZU KOELN, priority 2017, published 2025)

Columns and labels:
Vimentin 3 = assay: Cell culture experiments after ET-1 treatment, Western blot; type: cell-based; conditions: cell culture (DU145)
Protocol: Furthermore, cell culture experiments were conducted after ET-1 treatment over different time points and analyzed via Western blot the expression of the different proteins mentioned above. For the ET-1 ELISA and Vim3 ELISA 100 μl of serum was used. DU145 cells were cultured under normal conditions and treated with the substances mentioned. Cells were scratched before treatment. The ET-receptors were blocked 1 h before ET-1 stimulation. Immunofluorescence was performed on paraffin-embedded prostate cancer samples. This immunofluorescence has been carried out as described in Example 1 above. In addition to Vim3-specific antibodies, also Atg7- and pg3-specific primary antibodies have been used.

Vim3 [1] = assay: Immunohistochemistry of Vim3 in breast cancer specimens and metastases after tamoxifen treatment; type: in vivo, human
Protocol: (§1) The dependency of the overexpression of Vim3 due to ET-1 presence and after tamoxifen treatment was shown in cell culture experiments and analyzed via Western blot. The expression of Vim3and ET-1 was analyzed in paraffin-embedded tissue samples of patients with metastatic breast cancers after tamoxifen treatment. MCF-7 cells were cultured under normal conditions and treated with the mentioned substances. Tamoxifen treatment was performed 1 hour prior ET-1 or β-estradiol treatment. Nuclear extracts were isolated and analyzed via Western blot under standard conditions. A Proximity Ligation Assay (PLA) assay was performed according to the manufacturer's protocol. From cells after treatment, the mRNA was isolated and qRT-PCR was performed. Immunohistochemistry was performed according to standardized conditions.
Vim3 Expression in Invasive Ductal Breast Carcinoma, and Its Metastases From the pre-evaluation of breast cancer specimen via tissue-microarray it was known that ET-1 and Vim3 staining could be detected in tumor cells, while vimentin full length was only positive in the interstitial tissue. To analyze the expression of the newly described target gene Vim3 in more detail, its expression was investigated in […] biopsies and their respective resection specimens of breast cancer cases. […] In each biopsy, Vim3 was detected, either in nuclear (20/25; strong expression: 3+) and/or diffuse cytoplasmic (25/25) localization. After Tam treatment, seventeen respective resection specimens were still diffusely positive for Vim3, now mainly in a cytoplasmic localization (12/17), with nuclear localization additionally found in 5 specimens (5/17). In 4 cases, lymph node but no other metastases were reported (4/28). In contrast, 7 cases developed organ metastases (7/28), of which 3 had additional lymph node metastases.
The expression of Vim3 and ERB was investigated in resection specimens and their metastases. In a set of 8 cases positive for ERa after tam pretreatment, it was found again a diffuse cytoplasmic expression of Vim3. In addition, in […] metastases (pleura 2×, skin 2×, bone 3×, uterus 1×, liver 1×, soft tissue 1x) Vim3 was also expressed (cytoplasm: 12/12; additional nuclear expression 5/12). In 7 of the 12 metastases, a 3+ nuclear expression for ERB was found, which was in all investigated cases accompanied by Vim3 expression.

ET-1 = assay: Western blot of nuclear extracts of treated MCF-7 breast cancer cells; type: cell-based; conditions: nuclear extracts from breast cancer cells after Tamoxifen treatment
Protocol: as §1

Vim3 [2] = assay: Western blot with densitometry of Vim3 in total cell extract of stimulated MCF-7; type: cell-based; conditions: combined Tam plus ET-1 pretreatment versus ET-1 alone, p<0.001
Protocol: WB with 20 μg non-precipitated total cell extract of stimulated MCF-7. The corresponding densitometric analysis of the present bands of a protein analysis on the WB membrane where the intense band of Vim3 (47 kDa) is striking as compared to the very faint band of GAPDH in the same sample is shown with ImageJ, where the background and the control had been subtracted.
Furthermore, the effect of Tam was studied with regard to its translational capacity for Vim3 after a combined Tam plus ET-1 pretreatment versus ET-1 alone. […] Tam upregulates Vim3.

Vim3 [3] = assay: Vim3 expression analysis by qRT-PCR in treated MCF-7 cells; type: cell-based; conditions: combined pretreatment with tamoxifen and β-estradiol/ET-1, p<0.01
Source text: FIG. 25A-FIG. 25C show Vim3 expression analysis of treated MX-1 (FIG. 25A; FIG. 25B) and MCF-7 (FIG. 25C) cells by qRT-PCR analysis. […] In both diagrams the increase in Vim3 expression up to ca 700 RFU upon a combinational stimulation with Tam is decisive. Data shown is derived from quadruplicates from an independent experiment. *P<0.05, **P<0.01 and ***P<0.001.
as §1

Vim3 [4] = assay: Vim3 expression analysis by qRT-PCR in treated MX-1 cells; type: cell-based; conditions: combinational stimulation with Tam
Protocol: MCF-7 cells were cultured under normal conditions and treated with the mentioned substances. Tamoxifen treatment was performed 1 hour prior ET-1 or β-estradiol treatment. […] From cells after treatment, the mRNA was isolated and qRT-PCR was performed.

[5] = breast cancer resection specimens, positive/total

CC[C@H](C)[C@H](NC(=O)[C@H](CC(=O)O)NC(=O)[C@H](CC(C)C)NC(=O)[C@H](Cc1c[nH]cn1)NC(=O)[C@@H]1CSSC[C@H](N)C(=O)N[C@@H](CO)C(=O)N[C@H]2CSSC[C@H](NC(=O)[C@H](CCC(=O)O)NC(=O)[C@H](CCCCN)NC(=O)[C@H](CC(=O)O)NC(=O)[C@H](CCSC)NC(=O)[C@H](CC(C)C)NC(=O)[C@H](CO)NC(=O)[C@H](CO)NC2=O)C(=O)N[C@@H](C(C)C)C(=O)N[C@@H](Cc2ccc(O)cc2)C(=O)N[C@@H](Cc2ccccc2)C(=O)N1)C(=O)N[C@H](C(=O)N[C@@H](Cc1c[nH]c2ccccc12)C(=O)O)[C@@H](C)CC [ET-1, Endothelin-1]
Vimentin 3 production after ET-1 treatment (Vimentin 3): produce more Vimentin 3

CC/C(=C(\c1ccccc1)c1ccc(OCCN(C)C)cc1)c1ccccc1 [tamoxifen]
mastectomies with cytoplasmic Vim3 staining after Tam (Vim3 [1]; biopsies before Tam: nuclear positivity 19/21): 13/17 | resection specimens with additional nuclear Vim3 localization after Tam treatment (Vim3 [1]; [5]): 5/17 | resection specimens with cytoplasmic Vim3 localization after Tam treatment (Vim3 [1]; [5]): 12/17 | Vim3 level in tamoxifen-treated tumors and metastases (Vim3 [1]; patients with metastatic breast cancers after tamoxifen treatment): an increase of Vim3 was found in both, the tumor as well as the metastases | ET-1 signal in the nuclear fraction (ET-1): ET-1 expression is triggered | ET-1 signal in the nuclear fraction (ET-1; listed as Tamoxifen): significant upregulation of the ET-1 signal in the nuclear fraction | formation of Vim3 protein (Western blot densitometry) (Vim3 [2]): highly statistically significant induced formation of Vim3 | mRNA Vim3 expression (Vim3 [3]): clear increase in mRNA Vim3 expression | Vim3 expression (qRT-PCR) (Vim3 [4]): ~700 RFU
